In patent US6603023B2 (priority 1996, dated 2003):
Like-named read-outs stand apart in the source and are kept apart here.

Assays:
[1] = system: murine leukemic P388/0; assay: XTT cytotoxicity, P388/0; type: cell-based; details: Mus musculus, P388, 72 h
Method in brief: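 Growth was read by XTT/PMS reduction over 4 h at 37 °C after 72 h of compound treatment, with absorbance at 450 nm and 630 nm. CCRF-CEM, P388 and their resistant sublines, grown continuously with their selecting drugs, were cultured in duplicate at 5×10^4 cells/mL. The medium was RPMI-1640 with 10% FBS.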

[2] = system: human neuroblastoma SK-N-As; assay: SRB cytotoxicity, SK-N-As; type: cell-based; details: Homo sapiens, SK-N-AS, 72 h
Method in brief: (§1)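 Cellular protein content measured with sulforhodamine B after trichloroacetic acid fixation, read at 570 nm. Each duplicate run used six to seven concentrations, analysed by the median-effect method. Cells were cultured at 37 °C, 5% CO2 in RPMI 1640-10% FBS, and drug-resistant lines were maintained with their selecting agent.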

[3] = system: SK-N-FI; assay: cells; type: cell-based, human; details: Homo sapiens, SK-N-FI, 72 h
Method in brief: as §1

[4] = system: MCF-7; assay: SRB cytotoxicity, MCF-7; type: cell-based, human; details: Homo sapiens, MCF7, 72 h
Method in brief: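 Monolayer MCF-7 cultures exposed to six to seven drug concentrations in duplicate, then fixed with trichloroacetic acid and stained 30 min with 0.4% sulforhodamine B. Bound dye extracted with unbuffered Tris base, absorbance read at 570 nm; values derived by median-effect plot analysis.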

[5] = system: B16 Melanoma; type: in vivo, B6D2F1 mice; details: B6D2F1, mouse, in vivo
Procedure: Body weight was determined at 0, 2, 4, 6, 8, 10 and 12 days. […] Injections were started on day 1. […] Body weight was determined at 0, 2, 4, 6, 8, 10 and 12 days. […] Injections were started on day 1.

[6] = system: CCRF-CEM/Taxol®; assay: CCRF-CEM/Taxol xenograft, i.v. 6 h infusion; type: in vivo, nude mice; details: CCRF/Taxol Leukemia; dEpoB 30 mg/kg Q2D x 6, Taxol 15 mg/kg Q2D x 6
Source text: Treatment on days 6, 8, 10, 12 and 14.
Treatment on days 19, 21, 23, 25, 27, 39, 41, 43, 45 and 47.

[7] = system: PC-3 Human Prostate Carcinoma; assay: PC-3 xenograft; type: in vivo, nude mice; details: for Average Body Weight, Day 5: initial weight
[8] = system: A549 Human Lung Carcinoma; assay: A549 xenograft; type: in vivo, nude mice; details: for Average Tumor Size, Day 11: control 96; for Average Tumor Size, Day 13: control 128; for Average Tumor Size, Day 15: control 306; for Average Tumor Size, Day 17: control 553; for Average Body Weight, Day 7: initial weight
[9] = system: human ovarian adenocarcinoma SK-OV-3
[10] = 6 hr i.v. infusion: dEpoB 40, Taxol 24 mg/kg
[11] = PC-3 Prostate, dEpoB 40 mg/kg Q2D x 3, Taxol 15 mg/kg Q2D x 3
[12] = dEpoB 30 mg/kg 18 hr i.v. infusion, Taxol 16 mg/kg 6 hr infusion, VBL 2 and VP-16 25 mg/kg i.v. inj
[13] = A549 Lung, dEpoB 40 mg/kg Q2D x 3, Taxol 15 mg/kg Q2D x 3
[14] = Q2D x 3, 6 hr i.v. infusion: dEpoB 40, Taxol 24 mg/kg
[15] = Q2D x 3: dEpoB 30 mg/kg 18 hr i.v. infusion, Taxol 15 mg/kg 6 hr infusion, VBL 2 and VP-16 25 mg/kg i.v. inj
[16] = SK-OV-3 Ovary, dEpoB 30 mg/kg Q2D x 6, Taxol 15 mg/kg Q2D x 6

CC(=O)O[C@H]1C(=O)[C@@]2(C)[C@H]([C@H](OC(=O)c3ccccc3)[C@]3(O)C[C@H](OC(=O)[C@H](O)[C@@H](NC(=O)c4ccccc4)c4ccccc4)C(C)=C1C3(C)C)[C@]1(OC(C)=O)CO[C@@H]1C[C@@H]2O [Taxol ®, paclitaxel]
IC50 [1]: 2.9 nM
IC50 [2]: 1.6 nM
IC50 [3]: 130 nM
IC50 [4]: 3.3 nM
# Mice Died [5]: 0/8
Lowest Average Tumor Size (T/C) [6]: 1.09 T/C
Tumor Disappearance [6]: 0
Average Body Weight (change), Day 9 [7, 10]: -2.2 g
Average Body Weight (change), Day 11 [7, 10]: -2.8 g
Average Body Weight (change), Day 13 [7, 10]: -0.8 g
Average Tumor Size (TC), Day 9 [7, 10]: 0.18 TC
Average Tumor Size (TC), Day 11 [7, 10]: 0.05 TC
Average Tumor Size (TC), Day 13 [7, 10]: 0.06 TC
Tumor Disappearance [7, 10]: 2/4
Lowest Average Tumor Size (T/C) [7, 11]: 0.02 T/C
Tumor Disappearance [7, 11]: 0
Average Body Weight (change), Day 9 [7, 12]: -1.1 g
Average Body Weight (change), Day 11 [7, 12]: -0.9 g
Average Body Weight (change), Day 13 [7, 12]: +0.4 g
Average Tumor Size (TC), Day 9 [7, 12]: 0.34 TC
Average Tumor Size (TC), Day 11 [7, 12]: 0.09 TC
Average Tumor Size (TC), Day 13 [7, 12]: 0.02 TC
Tumor Disappearance [7, 12]: 0/4
Average Body Weight, Day 5 [7, 10]: 28.8 g
Average Body Weight, Day 5 [7, 12]: 26.6 g
Lowest Average Tumor Size (T/C) [8, 13]: 0.01 T/C
Tumor Disappearance [8, 13]: 2/4
Average Body Weight (change), Day 11 [8, 14]: -2.1 g
Average Body Weight (change), Day 13 [8, 14]: -2.7 g
Average Body Weight (change), Day 15 [8, 14]: -0.9 g
Tumor Disappearance [8, 14]: 4/4
Average Tumor Size, Day 11 [8, 14]: 14 mm^3
Average Tumor Size, Day 13 [8, 14]: 8 mm^3
Average Tumor Size, Day 15 [8, 14]: 0 mm^3
Average Tumor Size, Day 17 [8, 14]: 0 mm^3
Average Body Weight (change), Day 11 [8, 15]: -1.2 g
Average Body Weight (change), Day 13 [8, 15]: -0.8 g
Average Body Weight (change), Day 15 [8, 15]: +0.5 g
Tumor Disappearance [8, 15]: 2/4
Average Tumor Size, Day 11 [8, 15]: 49 mm^3
Average Tumor Size, Day 13 [8, 15]: 32 mm^3
Average Tumor Size, Day 15 [8, 15]: 7 mm^3
Average Tumor Size, Day 17 [8, 15]: 6 mm^3
Average Body Weight, Day 7 [8, 14]: 28.5 g
Average Body Weight, Day 7 [8, 15]: 27.6 g
Tumor Disapp. ([9]; 5 mg/kg i.p. Q2Dx5 from day 9): 0/6
Average Body Weight Change ([9]; 5 mg/kg i.p. Q2Dx5 from day 9, day 13): -1.1 g
Average Body Weight Change ([9]; 5 mg/kg i.p. Q2Dx5 from day 9, day 15): -2.0 g
Average Body Weight Change ([9]; 5 mg/kg i.p. Q2Dx5 from day 9, day 17): -1.0 g
Average Body Weight Change ([9]; 5 mg/kg i.p. Q2Dx5 from day 9, day 19): -0.2 g
Lowest Average Tumor Size (T/C) [9, 16]: 0.02 T/C
Tumor Disappearance [9, 16]: 1/4
Tumor Disapp. ([9]; Taxol 15 mg/kg i.v. Q2Dx5 from day 9): 0/6
Average Body Weight Change ([9]; Taxol 15 mg/kg i.v. Q2Dx5 from day 9, day 13): -0.6 g
Average Body Weight Change ([9]; Taxol 15 mg/kg i.v. Q2Dx5 from day 9, day 15): -0.8 g
Average Body Weight Change ([9]; Taxol 15 mg/kg i.v. Q2Dx5 from day 9, day 17): -0.8 g
Average Body Weight Change ([9]; Taxol 15 mg/kg i.v. Q2Dx5 from day 9, day 19): -0.9 g
Toxicity Death ([9]; nude, mouse, in vivo): 0/6
